{"source": "PubChem BioAssay (NCI)", "assay_in_all_cases": "NCI-60 cell line screen, 48 h", "key": {"OVCAR-5 ovarian": {"system": "OVCAR-5 ovarian"}, "SN12C renal": {"system": "SN12C renal"}, "HCT-116 colon": {"system": "HCT-116 colon"}, "OVCAR-3 ovarian": {"system": "OVCAR-3 ovarian"}, "OVCAR-4 ovarian": {"system": "OVCAR-4 ovarian"}, "SK-MEL-5 melanoma": {"system": "SK-MEL-5 melanoma"}, "K-562 leukemia": {"system": "K-562 leukemia"}, "A549 NSCLC": {"system": "A549 NSCLC"}, "CAKI-1 renal": {"system": "CAKI-1 renal"}, "SK-OV-3 ovarian": {"system": "SK-OV-3 ovarian"}}, "note": "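Test compounds were applied to cells in 96-well plates for 48 hours at 5 doses. Abbreviation: GI50, concentration required for 50% inhibition of growth. TGI denotes the concentration required for complete inhibition of growth.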", "data": [{"compound": "O=[N+]([O-])c1ccc2c(c1)[O][Sn]([I])([I])[O]2", "values": [{"measurement": "GI50", "setting": "OVCAR-5 ovarian", "value": "> 100", "unit": "µM"}, {"measurement": "TGI", "setting": "OVCAR-5 ovarian", "value": "> 100", "unit": "µM"}, {"measurement": "GI50", "setting": "SN12C renal", "value": "> 100", "unit": "µM"}, {"measurement": "TGI", "setting": "SN12C renal", "value": "> 100", "unit": "µM"}, {"measurement": "GI50", "setting": "HCT-116 colon", "value": "> 100", "unit": "µM"}, {"measurement": "TGI", "setting": "HCT-116 colon", "value": "> 100", "unit": "µM"}, {"measurement": "GI50", "setting": "OVCAR-3 ovarian", "value": "> 100", "unit": "µM"}, {"measurement": "TGI", "setting": "OVCAR-3 ovarian", "value": "> 100", "unit": "µM"}, {"measurement": "GI50", "setting": "OVCAR-4 ovarian", "value": "> 100", "unit": "µM"}, {"measurement": "TGI", "setting": "OVCAR-4 ovarian", "value": "> 100", "unit": "µM"}, {"measurement": "GI50", "setting": "SK-MEL-5 melanoma", "value": "> 100", "unit": "µM"}, {"measurement": "TGI", "setting": "SK-MEL-5 melanoma", "value": "> 100", "unit": "µM"}, {"measurement": "GI50", "setting": "K-562 leukemia", "value": "> 100", "unit": "µM"}, {"measurement": "TGI", "setting": "K-562 leukemia", "value": "> 100", "unit": "µM"}, {"measurement": "GI50", "setting": "A549 NSCLC", "value": "> 100", "unit": "µM"}, {"measurement": "TGI", "setting": "A549 NSCLC", "value": "> 100", "unit": "µM"}, {"measurement": "GI50", "setting": "CAKI-1 renal", "value": "> 100", "unit": "µM"}, {"measurement": "TGI", "setting": "CAKI-1 renal", "value": "> 100", "unit": "µM"}, {"measurement": "GI50", "setting": "SK-OV-3 ovarian", "value": "> 100", "unit": "µM"}, {"measurement": "TGI", "setting": "SK-OV-3 ovarian", "value": "> 100", "unit": "µM"}]}, {"compound": "Cc1cc(-c2nnc3n2CCCCC3)c(C)n1-c1ccc(Cl)c(Cl)c1", "values": [{"measurement": "GI50", "setting": "OVCAR-5 ovarian", "value": 39, "unit": "µM"}, {"measurement": "TGI", "setting": "OVCAR-5 ovarian", "value": "> 100", "unit": "µM"}, {"measurement": "GI50", "setting": "SN12C renal", "value": 14.7, "unit": "µM"}, {"measurement": "TGI", "setting": "SN12C renal", "value": 40.1, "unit": "µM"}, {"measurement": "GI50", "setting": "HCT-116 colon", "value": 12.8, "unit": "µM"}, {"measurement": "TGI", "setting": "HCT-116 colon", "value": 28.7, "unit": "µM"}, {"measurement": "GI50", "setting": "OVCAR-3 ovarian", "value": 10.2, "unit": "µM"}, {"measurement": "TGI", "setting": "OVCAR-3 ovarian", "value": 23.7, "unit": "µM"}, {"measurement": "GI50", "setting": "OVCAR-4 ovarian", "value": 8.4, "unit": "µM"}, {"measurement": "TGI", "setting": "OVCAR-4 ovarian", "value": 57.5, "unit": "µM"}, {"measurement": "GI50", "setting": "SK-MEL-5 melanoma", "value": 2.18, "unit": "µM"}, {"measurement": "TGI", "setting": "SK-MEL-5 melanoma", "value": 6.08, "unit": "µM"}, {"measurement": "GI50", "setting": "K-562 leukemia", "value": 5.14, "unit": "µM"}, {"measurement": "TGI", "setting": "K-562 leukemia", "value": 39.3, "unit": "µM"}, {"measurement": "GI50", "setting": "A549 NSCLC", "value": 16.8, "unit": "µM"}, {"measurement": "TGI", "setting": "A549 NSCLC", "value": 65.8, "unit": "µM"}, {"measurement": "GI50", "setting": "CAKI-1 renal", "value": 22.3, "unit": "µM"}, {"measurement": "TGI", "setting": "CAKI-1 renal", "value": "> 100", "unit": "µM"}, {"measurement": "GI50", "setting": "SK-OV-3 ovarian", "value": 19.2, "unit": "µM"}, {"measurement": "TGI", "setting": "SK-OV-3 ovarian", "value": 45.7, "unit": "µM"}]}, {"compound": "O=Cc1ccc(-c2cccs2)s1", "values": [{"measurement": "TGI", "setting": "OVCAR-5 ovarian", "value": 69.7, "unit": "µM"}, {"measurement": "TGI", "setting": "SN12C renal", "value": "> 100", "unit": "µM"}, {"measurement": "TGI", "setting": "HCT-116 colon", "value": "> 100", "unit": "µM"}, {"measurement": "TGI", "setting": "OVCAR-3 ovarian", "value": 58.1, "unit": "µM"}, {"measurement": "TGI", "setting": "OVCAR-4 ovarian", "value": "> 77", "unit": "µM"}, {"measurement": "TGI", "setting": "SK-MEL-5 melanoma", "value": "> 88.9", "unit": "µM"}, {"measurement": "TGI", "setting": "K-562 leukemia", "value": 46.4, "unit": "µM"}, {"measurement": "TGI", "setting": "A549 NSCLC", "value": "> 100", "unit": "µM"}, {"measurement": "TGI", "setting": "CAKI-1 renal", "value": 49.7, "unit": "µM"}, {"measurement": "TGI", "setting": "SK-OV-3 ovarian", "value": "> 100", "unit": "µM"}]}, {"compound": "Cc1ccc(NC(=O)Cn2c(Br)nc3c2c(=O)n(C)c(=O)n3C)cc1", "values": [{"measurement": "GI50", "setting": "OVCAR-5 ovarian", "value": 3.69, "unit": "µM"}, {"measurement": "TGI", "setting": "OVCAR-5 ovarian", "value": 13.9, "unit": "µM"}, {"measurement": "GI50", "setting": "SN12C renal", "value": 3.16, "unit": "µM"}, {"measurement": "TGI", "setting": "SN12C renal", "value": 10.8, "unit": "µM"}, {"measurement": "GI50", "setting": "HCT-116 colon", "value": 2.43, "unit": "µM"}, {"measurement": "TGI", "setting": "HCT-116 colon", "value": 8.02, "unit": "µM"}, {"measurement": "GI50", "setting": "OVCAR-3 ovarian", "value": 2.31, "unit": "µM"}, {"measurement": "TGI", "setting": "OVCAR-3 ovarian", "value": 5.35, "unit": "µM"}, {"measurement": "GI50", "setting": "OVCAR-4 ovarian", "value": 2.1, "unit": "µM"}, {"measurement": "TGI", "setting": "OVCAR-4 ovarian", "value": 4.57, "unit": "µM"}, {"measurement": "GI50", "setting": "SK-MEL-5 melanoma", "value": 2.31, "unit": "µM"}, {"measurement": "TGI", "setting": "SK-MEL-5 melanoma", "value": 5.57, "unit": "µM"}, {"measurement": "GI50", "setting": "K-562 leukemia", "value": 18.5, "unit": "µM"}, {"measurement": "TGI", "setting": "K-562 leukemia", "value": 74.5, "unit": "µM"}, {"measurement": "GI50", "setting": "A549 NSCLC", "value": 5.61, "unit": "µM"}, {"measurement": "TGI", "setting": "A549 NSCLC", "value": 24.5, "unit": "µM"}, {"measurement": "GI50", "setting": "CAKI-1 renal", "value": 4.32, "unit": "µM"}, {"measurement": "TGI", "setting": "CAKI-1 renal", "value": 16.3, "unit": "µM"}, {"measurement": "GI50", "setting": "SK-OV-3 ovarian", "value": 2.15, "unit": "µM"}, {"measurement": "TGI", "setting": "SK-OV-3 ovarian", "value": 4.52, "unit": "µM"}]}, {"compound": "FCc1ncc(-c2ccc(C(F)(F)F)cc2)c(NC2CCCCCC2)n1", "values": [{"measurement": "GI50", "setting": "OVCAR-5 ovarian", "value": "> 10", "unit": "µM"}, {"measurement": "TGI", "setting": "OVCAR-5 ovarian", "value": "> 10", "unit": "µM"}, {"measurement": "GI50", "setting": "SN12C renal", "value": "> 10", "unit": "µM"}, {"measurement": "TGI", "setting": "SN12C renal", "value": "> 10", "unit": "µM"}, {"measurement": "GI50", "setting": "HCT-116 colon", "value": "> 10", "unit": "µM"}, {"measurement": "TGI", "setting": "HCT-116 colon", "value": "> 10", "unit": "µM"}, {"measurement": "GI50", "setting": "OVCAR-3 ovarian", "value": "> 10", "unit": "µM"}, {"measurement": "TGI", "setting": "OVCAR-3 ovarian", "value": "> 10", "unit": "µM"}, {"measurement": "GI50", "setting": "OVCAR-4 ovarian", "value": "> 10", "unit": "µM"}, {"measurement": "TGI", "setting": "OVCAR-4 ovarian", "value": "> 10", "unit": "µM"}, {"measurement": "GI50", "setting": "SK-MEL-5 melanoma", "value": "> 10", "unit": "µM"}, {"measurement": "TGI", "setting": "SK-MEL-5 melanoma", "value": "> 10", "unit": "µM"}, {"measurement": "GI50", "setting": "K-562 leukemia", "value": "> 10", "unit": "µM"}, {"measurement": "TGI", "setting": "K-562 leukemia", "value": "> 10", "unit": "µM"}, {"measurement": "GI50", "setting": "A549 NSCLC", "value": "> 10", "unit": "µM"}, {"measurement": "TGI", "setting": "A549 NSCLC", "value": "> 10", "unit": "µM"}, {"measurement": "GI50", "setting": "CAKI-1 renal", "value": "> 10", "unit": "µM"}, {"measurement": "TGI", "setting": "CAKI-1 renal", "value": "> 10", "unit": "µM"}, {"measurement": "GI50", "setting": "SK-OV-3 ovarian", "value": "> 10", "unit": "µM"}, {"measurement": "TGI", "setting": "SK-OV-3 ovarian", "value": "> 10", "unit": "µM"}]}, {"compound": "Nc1nc(CCC(=O)Nc2cccc(C(F)(F)F)c2)cc(-c2ccc3ccccc3c2)n1", "values": [{"measurement": "TGI", "setting": "OVCAR-5 ovarian", "value": "> 100", "unit": "µM"}, {"measurement": "TGI", "setting": "SN12C renal", "value": "> 100", "unit": "µM"}, {"measurement": "TGI", "setting": "HCT-116 colon", "value": "> 100", "unit": "µM"}, {"measurement": "TGI", "setting": "OVCAR-3 ovarian", "value": "> 100", "unit": "µM"}, {"measurement": "TGI", "setting": "OVCAR-4 ovarian", "value": "> 100", "unit": "µM"}, {"measurement": "TGI", "setting": "SK-MEL-5 melanoma", "value": "> 100", "unit": "µM"}, {"measurement": "TGI", "setting": "K-562 leukemia", "value": "> 100", "unit": "µM"}, {"measurement": "TGI", "setting": "A549 NSCLC", "value": "> 100", "unit": "µM"}, {"measurement": "TGI", "setting": "CAKI-1 renal", "value": "> 100", "unit": "µM"}, {"measurement": "TGI", "setting": "SK-OV-3 ovarian", "value": "> 100", "unit": "µM"}]}, {"compound": "N#CC(NNC(=O)c1ccccc1O)c1cccc(O)c1", "note": "(stereo not given)", "values": [{"measurement": "TGI", "setting": "OVCAR-5 ovarian", "value": "> 100", "unit": "µM"}, {"measurement": "TGI", "setting": "SN12C renal", "value": "> 100", "unit": "µM"}, {"measurement": "TGI", "setting": "HCT-116 colon", "value": "> 100", "unit": "µM"}, {"measurement": "TGI", "setting": "OVCAR-3 ovarian", "value": "> 100", "unit": "µM"}, {"measurement": "TGI", "setting": "OVCAR-4 ovarian", "value": "> 100", "unit": "µM"}, {"measurement": "TGI", "setting": "SK-MEL-5 melanoma", "value": "> 100", "unit": "µM"}, {"measurement": "TGI", "setting": "K-562 leukemia", "value": "> 100", "unit": "µM"}, {"measurement": "TGI", "setting": "A549 NSCLC", "value": "> 100", "unit": "µM"}, {"measurement": "TGI", "setting": "CAKI-1 renal", "value": "> 100", "unit": "µM"}, {"measurement": "TGI", "setting": "SK-OV-3 ovarian", "value": "> 100", "unit": "µM"}]}]}
